Consider ten molecules from patent publication US20100056477A1, “FUNGICIDAL MIXTURES OF AMIDINYLPHENYL COMPOUNDS” (Bayer CropScience AG, priority 2006, published 2010).

One data set relates to Botrytis cinerea. Put plainly: Botrytis test (beans)/protective. The data set is classed as in vivo. The note with it: single active compound, protective, evaluated 2 days after inoculation. As to the method:
Solvent: 24.5 parts by weight of acetone • 24.5 parts by weight of dimethylacetamide
(§1) Emulsifier: 1 part by weight of alkylaryl polyglycol ether
To produce a suitable preparation of active compound, 1 part by weight of active compound is mixed with the stated amounts of solvent and emulsifier, and the concentrate is diluted with water to the desired concentration.
To test for protective activity, young plants are sprayed with the preparation of active compound. After the spray coating has dried on, 2 small pieces of agar covered with growth of Botrytis cinerea are placed on each leaf. The inoculated plants are placed in a darkened chamber at 20° C. and a relative atmospheric humidity of 100%.
2 days after the inoculation, the size of the lesions on the leaves is evaluated. 0% means an efficacy which corresponds to that of the control, while an efficacy of 100% means that no disease is observed.

A further data set deals with Septoria tritici. Briefly: Septoria tritici test (wheat)/protective. The class given is in vivo. The note with it: single active compound, rate of application 125 ppm, protective, evaluated 20 days after inoculation. On the procedure:
(§2) Solvent: 50 parts by weight of n,n-dimethylacetamid
as §1
(§3) To produce a suitable preparation of active compound, 1 part by weight of active compound or active compound combination is mixed with the stated amounts of solvent and emulsifier, and the concentrate is diluted with water to the desired concentration.
To test the protective activity, young plants are sprayed with a preparation of active compound or active compound combination at the stated rate of application. After the spray coating has been dried, the plants are sprayed with a spore suspension of Septoria tritici. The plants remain for 48 hours at 20° C. and then 60 hours at 15° C. in an incubation cabinet at a relative atmospheric humidity of 100%.
(§4) The plants are placed in a greenhouse at a temperature of approximately 15° C. and a relative atmospheric humidity of approximately 80%.
The test is evaluated 20 days after inoculation. 0% means an efficacy which corresponds to that of the control, while an efficacy of 100% means that no disease is observed.

A further data set deals with Leptosphaeria nodorum. Briefly: Leptosphaeria nodorum test (wheat)/protective. The class given is in vivo. The note with it: single active compound, 125 ppm, protective, evaluated 10 days after inoculation. On the procedure:
as §2, §1, §3
To test for protective activity, young plants are sprayed with a preparation of active compound or active compound combination at the stated rate of application. After the spray coating has been dried, the plants are sprayed with a spore suspension of Leptosphaeria nodorum. The plants remain for 48 hours in an incubation cabinet at 20° C. and a relative atmospheric humidity of 100%.
as §4
The test is evaluated 10 days after the inoculation. 0% means an efficacy which corresponds to that of the control, while an efficacy of 100% means that no disease is observed.

The structures appear in SMILES notation.

As for `Cc1cc(Br)c(C=O)cc1[N+](=O)[O-]` [2-bromo-4-methyl-5-nitrobenzaldehyd, 2-bromo-4-methyl-5-nitrobenzaldehyde], the chromatographic logP in the data set “LogP (HCOOH)” (HCOOH) stood at 2.61.

`Cc1cc(OCCC[Si](C)(C)C)c(C(F)F)cc1N` [5-(difluoromethyl)-2-methyl-4-[3-(trimethylsilyl)propoxy]aniline] yielded a chromatographic logP in “LogP (HCOOH)” (HCOOH (formic acid)) of 3.8.

Regarding `CCN(C)/C=N/c1cc(C(F)(F)F)c(OCCC[Si](C)(C)C)cc1C` [(1-37), N-[5-trifluoro-methyl-2-methyl-4-[3-(trimethylsilyl)propoxyl]phenyl]-N-ethyl-N-methyl-methanimidamide], the Efficacy in % was found to be 0% in the data set on Botrytis cinerea (10 ppm) and 23% with Botrytis cinerea (100 ppm). The entries for the “Efficacy in % a.e. (actual efficacy)” value with Septoria tritici and in the data set with Leptosphaeria nodorum were 30% and 92%, respectively.

For `CCN(C)/C=N/c1cc(C(F)F)c(OCCC[Si](C)(C)C)cc1C` [(1-42), N′-{5-(difluoromethyl)-2-methyl-4-[3-(trimethylsilyl)propoxy]phenyl}-N-ethyl-N-methylimidoformamide], the Efficacy in % is 0% in the data set with Botrytis cinerea (10 ppm) and 29% in the data set on Botrytis cinerea (100 ppm). The chromatographic logP in the data set “LogP (HCOOH)” (HCOOH (formic acid)) is 2.81.

Molecule `Cn1cc(C(=O)Nc2ccccc2C2CC2C2CC2)c(C(F)F)n1` (centres unmarked) [(b-1), reference compound] had an Efficacy in % in the data set with Botrytis cinerea (100 ppm) of 38%. For the same molecule, the “Efficacy in % a.e. (actual efficacy)” value in the data set with Septoria tritici is 10%.

Molecule `Cn1cc(C(=O)Nc2ccccc2-c2ccc(C#CC(C)(C)C)cc2)c(C(F)F)n1` [(b-5), reference compound] yielded an Efficacy in % in the data set on Botrytis cinerea (10 ppm) of 80%. Further, the “Efficacy in % a.e. (actual efficacy)” value in the data set with Leptosphaeria nodorum amounted to 67%.

With `CC(C)(C)C#Cc1ccc(-c2ccccc2NC(=O)c2cccnc2Cl)cc1` [(b-7)], the “Efficacy in % a.e. (actual efficacy)” value in the data set on Leptosphaeria nodorum is recorded as 67%.

As for `CC(C)[C@@H]1C2CCC1c1c(NC(=O)c3cn(C)nc3C(F)F)cccc12` (some centres unmarked) [(b-17)], the “Efficacy in % a.e. (actual efficacy)” value in the data set on Septoria tritici is 30%.

Regarding `N#Cc1c[nH]cc1-c1cccc2c1OC(F)(F)O2` [(b-19)], the “Efficacy in % a.e. (actual efficacy)” value in the data set on Septoria tritici worked out at 30%.

Consider `Cc1cc(OCCC[Si](C)(C)C)c(C(F)F)cc1[N+](=O)[O-]` [{3-[2-(difluoromethyl)-5-methyl-4-nitrophenoxy]propyl}(trimethyl)silane], for which, in the data set “LogP (HCOOH)” (HCOOH), the chromatographic logP was 5.44.

The term chromatographic logP denotes a lipophilicity value derived from retention on a column. Read a high chromatographic logP as a more lipophilic compound.
